± gives the expanded uncertainty stated by the source.
Columns and labels:
[1] = Crystal; DTA
[2] = Molar enthalpy of transition or fusion; conditions: Crystal; DSC

With `O=C(O)CO` [2-hydroxyethanoic acid] the Normal melting temperature [1] was 77.60 ± 1.1 °C and the “Molar enthalpy of transition or fusion” value [2] was 4.76 ± 0.263 kcal/mol.

From the NIST ThermoML archive (doi:10.1016/j.jct.2017.01.004)
